Values quoted from earlier work as cited in patent publication US6720307B2, “Glycosylated analogs of fusidic acid” (The University of Michigan, priority 1996, dated 2004).

Legend:
HIV = settings: in vitro
enterobacteria = settings: all enterobacteria
[1] = system: methicillin-resistant staphylococci

In the case of `CC(=O)O[C@H]1C[C@@]2(C)[C@@H](C[C@@H](O)[C@H]3[C@@]4(C)CC[C@@H](O)[C@@H](C)[C@@H]4CC[C@@]32C)/C1=C(\CCC=C(C)C)C(=O)O` [fusidic acid, 3α,11α,16β-Trihydroxy-29-nor-8α,9β,13α,14β-dammara-17(20),24-dien-21-oic acid 16-acetate], the “susceptibility to fusidic acid” value (Psuedomonas spp.) is listed as “resistant”, the “effectiveness against HIV” value (HIV) is listed as “in vitro effectiveness” and the efficacy (Nocardia spp.) is listed as “moderate efficacy”. The “susceptibility to fusidic acid” value (Clostridium spp.) was “highly susceptible”, the “susceptibility to fusidic acid” value (fungi) was “resistant” and the “susceptibility to fusidic acid” value (Bacteroides spp.) was “susceptible”. The efficacy (mycobacteria) was “moderate efficacy”, the “susceptibility to fusidic acid” value (Staphylococcus aureus) was “highly susceptible” and the “susceptibility to fusidic acid” value (S. epidermidis) was “highly susceptible”. For the same compound, the “susceptibility to fusidic acid” value (enterobacteria) was “resistant”, the “susceptibility to fusidic acid” value (corynebacteria) was “highly susceptible” and the “susceptibility to fusidic acid” value [1] was “usually susceptible”. The “susceptibility to fusidic acid” value (Gram-negative bacilli) was “resistant”, the “susceptibility to fusidic acid” value (Neisseria) was “susceptible” and the efficacy (streptococci) was “moderate efficacy”.
